This is an account of results in patent US12496302B2, “Compositions and methods for the treatment and diagnosis of cancer” (The General Hospital Corporation, priority 2020, dated 2025).

Common to all, as to assay type: cell-based
The subject of one experiment is U2OS (DR-GFP) cells. Put plainly: DR-GFP HR reporter assay. The following applies: 2.5 μM/L for 6 h, in comparison with DMSO treated group. On the procedure:
(§1) FIGS. 6A-6E show TRDMT1 Inhibitors specifically sensitizes cells to DNA damage agents. (FIG. 6A) SCE WT cells were transfected with TA-KR and were cultured with 2.5 μM/L, compound YW-1842 or not for 6 hours, m^5C (n=3, 50 cells per replicated, Mean±SD) was stained and quantified. DR-GFP (FIG. 6B) or EJ5-GFP (FIG. 6C) cells were pre-treated with 2.5 μM/L, compound YW-1842 for 6 h or TRDMT1 siRNA for 48 h, or DMSO. Then the cells were transfected with NLS-I-SceI plasmid to induce DSB. The efficiency of HR (FIG. 6B) or NHEJ (FIG. 6C) was analyzed by flow-cytometry (n=3, Mean±SD). (FIG. 6D) After seeding, MCF-7, HCC1954, and HCC1937 cells were pre-treated with or without 2.5 μM/L compound YW-1842 for 6 h, then cultured with chemotherapy drugs (1 μM/L, Cisplatin; 1 μM/L ATRi AZ20; 10 μM/L, ATMi KU55933; 1 μM/L, PARPi Olaparib for 10 days. The survival rate of these cells was analyzed (n=3, Mean±SD). (FIG. 6E) TRDMT1 KO U2OS cells were transfected with GFP-TRDMT1^WT or GFP-TRDMT1^G155V with or without 2.5 μM/L, compound YW-1842, the survival rate of these cells after IR or Cisplatin was shown (n=3, Mean±SD).
(§2) Using a previously described method[Lan, L. et al. The ACF1 complex is required for DNA double-strand break repair in human cells. […] The GFP signal arising from the recombination (HR) or non-homologous end joining (NHEJ) events were measured by flow cytometry.

A further experiment has as its target T1, TRDMT1 (Homo sapiens, UniProt O14717).
T1 construct: SCE WT cells were transfected with TA-KR and were cultured with 2.5 μM/L, compound YW-1842 or not for 6 hours; endogenous in cells; host or cells: SCE WT cells (U2OS-TRE type) transfected with TA-KR only
T1 sequence (O14717 1-391): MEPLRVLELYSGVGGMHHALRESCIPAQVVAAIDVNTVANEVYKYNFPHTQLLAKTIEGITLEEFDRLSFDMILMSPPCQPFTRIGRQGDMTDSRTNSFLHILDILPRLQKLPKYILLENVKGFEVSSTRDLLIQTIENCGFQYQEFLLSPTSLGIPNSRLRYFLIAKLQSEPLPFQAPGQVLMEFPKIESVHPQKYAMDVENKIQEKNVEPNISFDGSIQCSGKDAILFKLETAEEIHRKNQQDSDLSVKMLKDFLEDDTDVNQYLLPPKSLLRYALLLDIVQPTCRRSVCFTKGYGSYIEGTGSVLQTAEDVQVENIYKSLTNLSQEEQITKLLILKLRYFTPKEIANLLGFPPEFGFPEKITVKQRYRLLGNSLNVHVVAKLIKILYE
Put plainly: m^5C staining at TA-KR DNA damage sites in cells treated with YW-1842. The procedure: as §1
The Olympus FV1000 confocal microscopy system (Cat. F10PRDMYR-1, Olympus) and FV1000 software were used for the acquisition of images. Cells were cultured in 35 mm glass-bottom dishes (MatTek, P35GC-1.5-14-C) before observation. Activation of KR in bulky cells was completed by exposing cells to a 15 W Sylvania cool white fluorescent bulb for 25 min in a stage UVP (Uvland, CA). The intensity was measured by ImageJ 1.52i software.
For m^5C staining using the heat method, the cells or tissues were fixed and permeabilized in a 35 mm glass-bottom dish using a standard protocol, incubated in buffer (10 mM Tris-HCl, 2 mM EDTA, pH=9) and steamed on a 95° C. heating block for 20 min to expose the antigen. The dish was cooled, washed 3 times with PBS and blocked using 5% BSA in 0.1% PBST for 0.5 h at room temperature. Primary antibody for m^5C (33D3, ab10805, Abcam) and secondary antibody were diluted in the same buffer (5% BSA in 0.1% PBST) and followed the standard IF protocol. […]

Another experiment deals with U2OS (EJ5-GFP) cells. Description: EJ5-GFP NHEJ reporter assay. As to conditions: 2.5 μM/L for 6 h, TRDMT1 wild type cells. The procedure: as §1, §2
(A reporter such as luciferase makes a cellular process visible.)

For experiment [1], the system named is MCF-7, HCC1954, and HCC1937 cells. Description: Cell survival assay, YW-1842 combined with DNA damaging agents, IR or H2O2. On the procedure: as §1
MCF-7, HCC1954, and HCC1937 cells were pre-treated with or without TRDMT1 inhibitor YW-1842 (2.5 μM) for 6 hrs, then the cells were exposed to IR or H2O2, and cultured for 7-14 days. The survival rate of these cells was analyzed (n=3, Mean±SD)
(§3) Approximately 500 U2OS/TRDMT1 KO U2OS/MCF-7/HCC1954/HCC1937 cells and TRDMT1 siRNA or GFP-TRDMT1 WT/G155V/K251R transfected cells were seeded in 6 cm dish with or without TRDMT1 inhibitors (2.5 μM/L). 6 hrs after seeding, cells were exposed to cisplatin (1134357, Sigma, 1 μM/L), ATMi (KU55933, C9867, Sigma, 10 μM/L), ATRi (AZ20, S7050, Selleck, 1 μM/L) or PARPi (Olaparib, AZD2461, Sigma, 1 μM/L) at indicated concentration or ionizing radiation (IR). After 7-14 days, colonies were fixed and stained with 0.3% crystal violet in methanol, and the number of colonies was counted manually.

In the next experiment the test system is U2OS or MCF7 cells. Put plainly: Cell survival of U2OS or MCF7 cells treated with YW-1842 alone. The procedure:
FIGS. 6F-6G show TRDMT1 inhibitor YW-1842 delays the repair of DSBs at the transcribed genome. (FIG. 6F) U2OS or MCF7 cells were treated with or without compound YW-1842 at the indicated concentration. The survival rate of these cells was shown (n=3, Mean±SD). (FIG. 6G) SCE WT cells were transfected with TA-KR and were cultured with 2.5 μM YW-1842 or not for 6 hours, γ-H2AX (n=3, 50 cells per replicated, Mean±SD) were stained and quantified.
as §3

Another experiment deals with TRDMT1 KO U2OS cells. Put plainly: Cell survival after IR or Cisplatin in TRDMT1 KO U2OS cells with or without YW-1842. As to conditions: 2.5 μM/L. On the procedure: as §1
Approximately 500 U2OS/TRDMT1 KO U2OS/MCF-7/HCC1954/HCC1937 cells and TRDMT1 siRNA or GFP-TRDMT1 WT/G155V/K251R transfected cells were seeded in 6 cm dish with or without TRDMT1 inhibitors (2.5 μM/L). […]

Entries after “also recorded” stand apart in the source; their conditions may differ.

In the case of `COc1cc2nc(-n3cc(-c4ccc(S(C)(=O)=O)cc4)cn3)nc(-c3ccsc3)c2cc1OC` [YW-1842, 6,7-dimethoxy-2-(4-(4-(methylsulfonyl)phenyl)-1H-pyrazol-1-yl)-4-(thiophen-3-yl)quinazoline], the “HR-mediated repair of I-SceI-generated DSBs” value with U2OS (DR-GFP) cells is recorded as “diminished the repair of I-SceI-generated DSBs”. For the same compound, at TRDMT1, the “TRDMT1 inhibition (overall statement)” value is “potent inhibitor for TRDMT1; also recorded: high inhibitory activity”; the “inhibiting TRDMT1 recruitment, m^5C formation and HR efficiency at DNA damage sites” value was “performed well”. Besides, the “m^5C inhibitory activity” value at TRDMT1 (2.5 μM/L, 6 hours, cells transfected with TA-KR) is given as “almost equivalent to TRDMT1 depletion”. Moreover, in the experiment with U2OS (EJ5-GFP) cells, the “non-homologous end joining (NHEJ) efficiency” value is recorded as “no obvious changes”. Further, the “survival rate in combination with H2O2 compared to DMSO” value in experiment [1] (2.5 μM, combined with H2O2) is “decreased the survival rate of all the three cell lines”. In addition, the “sensitivity to IR in combination” value in experiment [1] (2.5 μM, combined with IR) was “clear sensitivity enhancement”. The “sensitization to DNA damaging agents (Cisplatin, ATRi AZ20, ATMi KU55933, PARPi Olaparib) compared to single treatment” value in experiment [1] (2.5 μM/L pre-treatment 6 h) is listed as “sensitizes the cells”. For the same compound, the “synergy with PARPi Olaparib” value in experiment [1] (YW-1842 2.5 μM, Olaparib 1 μM, HCC 1954 cell lines) was “strong synergy”. Also, the “cell killing by compound alone” value with U2OS or MCF7 cells (2.5 μM/L) is “does not kill cells alone”. In the experiment with U2OS or MCF7 cells (concentration below 5 μM/L), the “antiproliferative effect (cell proliferation)” value is “did not prohibit cell proliferation”. The “sensitization of TRDMT1 KO cells to IR or Cisplatin” value with TRDMT1 KO U2OS cells is “does not sensitize TRDMT1 KO”.
